Experimental data reported in ChEMBL document CHEMBL5576158, “Recent insights of PROTAC developments in inflammation-mediated and autoimmune targets: a critical review” (RSC Med Chem, 2024).

Key:
[1] = target: T1, von Hippel-Lindau disease tumor suppressor/Interleukin-1 receptor-associated kinase 3 (Homo sapiens, UniProt Q9Y616+P40337); test: PROTAC activity at IRAK3/VHL E3 ligase in human THP-1 cells assessed as induction of IRAK3 degradation by Immuno-blot analysis; format: cell-based
[2] = target: T1, von Hippel-Lindau disease tumor suppressor/Interleukin-1 receptor-associated kinase 3; test: PROTAC activity at IRAK3/VHL E3 ligase in human THP-1 cells assessed as induction of IRAK3 degradation by measuring maximal efficacy incubated for 24 hrs by Western blot analysis; format: cell-based
[3] = target: Protein cereblon/Interleukin-1 receptor-associated kinase 4 (Homo sapiens, UniProt Q9NWZ3+Q96SW2); test: PROTAC activity at CRBN/IRAK4 in human THP-1 cells assessed as induction of IRAK4 degradation by Immuno-blotting analysis; format: cell-based
Chain of Protein cereblon/Interleukin-1 receptor-associated kinase 4 (Q9NWZ3 whole entry): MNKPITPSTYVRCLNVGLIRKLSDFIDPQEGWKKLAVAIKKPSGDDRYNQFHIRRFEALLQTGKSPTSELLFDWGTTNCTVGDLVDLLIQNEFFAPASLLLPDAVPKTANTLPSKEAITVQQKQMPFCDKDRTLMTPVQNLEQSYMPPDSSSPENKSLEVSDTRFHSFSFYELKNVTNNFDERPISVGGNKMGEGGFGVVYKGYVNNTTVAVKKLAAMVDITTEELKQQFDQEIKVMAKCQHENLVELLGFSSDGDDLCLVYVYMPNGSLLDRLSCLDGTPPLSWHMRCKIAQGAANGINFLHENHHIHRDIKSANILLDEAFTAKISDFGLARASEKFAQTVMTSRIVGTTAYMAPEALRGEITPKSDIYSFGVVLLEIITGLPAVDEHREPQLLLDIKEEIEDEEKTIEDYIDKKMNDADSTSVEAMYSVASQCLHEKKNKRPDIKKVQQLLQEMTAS
Chain of Protein cereblon/Interleukin-1 receptor-associated kinase 4 (Q96SW2 whole entry): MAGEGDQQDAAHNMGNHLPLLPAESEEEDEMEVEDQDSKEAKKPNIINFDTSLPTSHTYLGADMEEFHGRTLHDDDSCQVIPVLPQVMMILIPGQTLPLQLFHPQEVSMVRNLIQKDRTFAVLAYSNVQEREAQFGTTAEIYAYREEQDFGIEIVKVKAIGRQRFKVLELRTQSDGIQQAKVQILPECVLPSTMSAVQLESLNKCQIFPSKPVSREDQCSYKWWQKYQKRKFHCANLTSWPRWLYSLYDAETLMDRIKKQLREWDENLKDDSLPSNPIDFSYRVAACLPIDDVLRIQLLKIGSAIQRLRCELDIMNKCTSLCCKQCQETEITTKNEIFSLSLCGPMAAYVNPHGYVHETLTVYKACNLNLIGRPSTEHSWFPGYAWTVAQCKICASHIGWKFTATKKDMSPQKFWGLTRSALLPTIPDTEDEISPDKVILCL

[4] = target: Protein cereblon/Protein deacetylase HDAC6 (Homo sapiens, UniProt Q9UBN7+Q96SW2); test: PROTAC activity at CRBN/HDAC6 in human MM1.S cells assessed as HDAC6 degradation incubated for 18 hrs by immunoblot analysis; format: cell-based
Chain of Protein cereblon/Protein deacetylase HDAC6 (Q9UBN7 whole entry): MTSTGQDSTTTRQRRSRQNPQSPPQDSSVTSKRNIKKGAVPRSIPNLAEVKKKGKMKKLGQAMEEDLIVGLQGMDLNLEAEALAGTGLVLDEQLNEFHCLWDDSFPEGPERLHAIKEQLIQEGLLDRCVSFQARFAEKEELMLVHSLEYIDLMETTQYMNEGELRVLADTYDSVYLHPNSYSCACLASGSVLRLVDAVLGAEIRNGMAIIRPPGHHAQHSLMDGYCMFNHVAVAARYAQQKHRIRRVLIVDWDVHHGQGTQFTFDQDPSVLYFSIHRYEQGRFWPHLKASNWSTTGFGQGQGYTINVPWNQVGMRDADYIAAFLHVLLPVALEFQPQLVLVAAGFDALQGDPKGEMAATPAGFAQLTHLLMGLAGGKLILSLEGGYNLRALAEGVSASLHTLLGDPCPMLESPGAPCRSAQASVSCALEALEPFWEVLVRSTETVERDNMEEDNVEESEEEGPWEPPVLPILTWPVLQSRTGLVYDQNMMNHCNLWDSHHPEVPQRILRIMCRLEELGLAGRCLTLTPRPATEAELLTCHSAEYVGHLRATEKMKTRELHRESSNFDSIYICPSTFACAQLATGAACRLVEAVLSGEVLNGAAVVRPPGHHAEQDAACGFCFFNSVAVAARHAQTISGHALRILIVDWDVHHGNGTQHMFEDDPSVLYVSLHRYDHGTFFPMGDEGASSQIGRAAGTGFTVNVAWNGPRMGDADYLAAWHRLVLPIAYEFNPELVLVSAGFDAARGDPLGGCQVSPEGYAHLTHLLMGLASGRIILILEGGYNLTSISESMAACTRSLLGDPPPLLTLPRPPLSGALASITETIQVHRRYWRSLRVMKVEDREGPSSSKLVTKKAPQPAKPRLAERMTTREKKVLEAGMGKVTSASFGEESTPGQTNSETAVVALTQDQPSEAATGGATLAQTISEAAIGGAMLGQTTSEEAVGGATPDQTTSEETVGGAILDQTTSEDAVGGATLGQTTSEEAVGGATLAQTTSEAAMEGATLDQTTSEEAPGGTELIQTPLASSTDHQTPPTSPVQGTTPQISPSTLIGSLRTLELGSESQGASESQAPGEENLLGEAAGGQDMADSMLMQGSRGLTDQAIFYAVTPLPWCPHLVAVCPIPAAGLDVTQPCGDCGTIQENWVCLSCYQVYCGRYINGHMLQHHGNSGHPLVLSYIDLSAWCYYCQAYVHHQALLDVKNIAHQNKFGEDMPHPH
Chain of Protein cereblon/Protein deacetylase HDAC6 (Q96SW2 whole entry): as the sequence (Q96SW2 whole entry) above

[5] = target: Receptor-interacting serine/threonine-protein kinase 2 (Homo sapiens) (UniProt O43353); test: PROTAC activity at IAP/RIPK2 in human THP-1 cells assessed as […] by Western blot analysis
Chain of Receptor-interacting serine/threonine-protein kinase 2 (Homo sapiens) (O43353 whole entry, looked up): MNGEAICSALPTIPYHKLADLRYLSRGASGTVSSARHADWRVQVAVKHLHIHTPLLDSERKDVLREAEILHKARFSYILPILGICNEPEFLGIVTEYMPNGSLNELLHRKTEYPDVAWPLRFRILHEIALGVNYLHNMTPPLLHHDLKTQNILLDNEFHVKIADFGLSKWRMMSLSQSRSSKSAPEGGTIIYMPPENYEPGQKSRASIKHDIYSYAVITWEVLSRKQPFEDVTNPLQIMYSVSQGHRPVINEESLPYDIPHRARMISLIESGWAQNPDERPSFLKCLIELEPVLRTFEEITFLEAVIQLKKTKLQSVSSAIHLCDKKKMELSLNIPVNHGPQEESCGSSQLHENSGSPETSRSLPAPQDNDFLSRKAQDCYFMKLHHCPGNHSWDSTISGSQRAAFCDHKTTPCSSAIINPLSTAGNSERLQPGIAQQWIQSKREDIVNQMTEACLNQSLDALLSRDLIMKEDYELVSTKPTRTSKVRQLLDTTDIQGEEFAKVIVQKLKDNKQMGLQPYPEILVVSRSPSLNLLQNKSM

[6] = target: Protein cereblon/Macrophage migration inhibitory factor (Homo sapiens) (UniProt P14174+Q96SW2); test: PROTAC activity at E3 ubiquitin ligase/MIF in human A549 cells assessed as induction of MIF degradation by Western blot analysis; format: cell-based
Chain of Protein cereblon/Macrophage migration inhibitory factor (Homo sapiens) (Q96SW2 whole entry partner, one chain of several): as the sequence (Q96SW2 whole entry) above

[7] = target: von Hippel-Lindau disease tumor suppressor/Tyrosine-protein kinase BTK (Homo sapiens, UniProt Q06187+P40337, C481S); test: PROTAC activity at VHL/BTK C481S mutant in human THP-1 cells assessed as induction of BTK degradation incubated for 24 hrs by immunoblotting analysis; format: cell-based
[8] = target: Protein cereblon/Indoleamine 2,3-dioxygenase 1 (Homo sapiens) (UniProt P14902+Q96SW2); test: PROTAC activity against CRBN/IDO1 in human HeLa cells assessed as induction of IDO1 degradation at 2 uM incubated for 24 hrs by Western blot analysis relative to control; format: cell-based
[9] = target: T2, Macrophage migration inhibitory factor (Homo sapiens, UniProt P14174); test: Binding affinity to MIF in human A549 cells assessed as inhibition constant; format: cell-based
T2 sequence (P14174 whole entry): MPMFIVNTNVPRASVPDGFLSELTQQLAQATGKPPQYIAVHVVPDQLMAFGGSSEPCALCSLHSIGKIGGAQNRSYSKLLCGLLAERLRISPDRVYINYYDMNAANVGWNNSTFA

[10] = target: Protein cereblon/Histone deacetylase 8 (Homo sapiens, UniProt Q9BY41+Q96SW2); test: PROTAC activity at CRBN/HDAC8 in human Jurkat T cells assessed as induction of degradation of HDAC8 by Western blot analysis; format: cell-based
[11] = Cytotoxicity against mouse RAW264.7 cells assessed as reduction in cell growth; format: toxicity, cell-based
[12] = target: T3, Tyrosine-protein kinase ITK/TSK (Homo sapiens) (UniProt Q08881); test: Degradation of ITK (unknown origin) at 1 uM relative to control
T3 sequence (whole entry): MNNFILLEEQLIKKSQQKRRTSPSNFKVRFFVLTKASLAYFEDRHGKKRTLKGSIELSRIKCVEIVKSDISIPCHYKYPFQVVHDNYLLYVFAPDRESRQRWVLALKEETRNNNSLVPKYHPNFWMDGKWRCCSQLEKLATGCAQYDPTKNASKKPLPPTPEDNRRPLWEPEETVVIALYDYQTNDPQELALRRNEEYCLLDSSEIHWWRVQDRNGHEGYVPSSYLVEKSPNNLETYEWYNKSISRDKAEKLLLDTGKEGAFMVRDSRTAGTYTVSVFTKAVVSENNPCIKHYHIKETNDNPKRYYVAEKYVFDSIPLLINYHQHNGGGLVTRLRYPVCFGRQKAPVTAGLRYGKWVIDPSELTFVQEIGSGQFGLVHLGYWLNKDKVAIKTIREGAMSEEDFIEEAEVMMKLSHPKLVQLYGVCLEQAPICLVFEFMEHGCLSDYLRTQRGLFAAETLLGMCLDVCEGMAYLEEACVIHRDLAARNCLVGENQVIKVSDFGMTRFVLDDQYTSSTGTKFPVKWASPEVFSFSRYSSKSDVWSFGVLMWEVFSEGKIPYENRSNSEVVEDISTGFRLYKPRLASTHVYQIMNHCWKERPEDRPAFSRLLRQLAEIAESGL

[13] = target: T4, Tyrosine-protein kinase ITK/TSK (Homo sapiens, UniProt Q08881); test: Inhibition of ITK (unknown origin)
T4 sequence (Q08881 whole entry): T3 sequence (whole entry)

[14] = target: von Hippel-Lindau disease tumor suppressor/Receptor-interacting serine/threonine-protein kinase 2 (Homo sapiens) (UniProt O43353+P40337); test: PROTAC activity at VHL/RIPK2 in human THP-1 cells assessed as RIPK2 degradation by measuring maximal efficacy at 10 nM measured after 16 hrs by Western blot analysis relative to control; format: cell-based
Chain of von Hippel-Lindau disease tumor suppressor/Receptor-interacting serine/threonine-protein kinase 2 (Homo sapiens) (O43353 whole entry, looked up): as the sequence (O43353 whole entry, looked up) above
Chain of von Hippel-Lindau disease tumor suppressor/Receptor-interacting serine/threonine-protein kinase 2 (Homo sapiens) (P40337 whole entry, looked up): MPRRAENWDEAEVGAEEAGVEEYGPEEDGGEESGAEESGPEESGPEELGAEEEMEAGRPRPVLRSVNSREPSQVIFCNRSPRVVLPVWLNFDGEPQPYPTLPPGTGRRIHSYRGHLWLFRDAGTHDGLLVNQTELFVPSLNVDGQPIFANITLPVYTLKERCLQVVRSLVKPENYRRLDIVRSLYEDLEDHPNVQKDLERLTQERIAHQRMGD

[15] = target: Protein cereblon/Histone acetyltransferase KAT2A (Homo sapiens) (UniProt Q92830+Q96SW2); test: PROTAC activity at GCN5/CRBN in human THP-1 cells assessed as induction of […] degradation by measuring maximal efficacy at 30 nM measured for 10 mins by Western blot analysis relative to control; format: cell-based
[16] = target: Protein cereblon/Histone acetyltransferase KAT2B (Homo sapiens) (UniProt Q92831+Q96SW2); test: PROTAC activity at PCAF/CRBN in human THP-1 cells assessed as induction of PCAF degradation by measuring maximal efficacy at 30 nM measured for 10 mins by Western blot analysis relative to control; format: cell-based

Q: What does the source list for `Cc1ncsc1-c1ccc([C@H](C)NC(=O)[C@@H]2C[C@@H](O)CN2C(=O)[C@@H](NC(=O)[C@H]2CC[C@H](C(=O)N3CCC(n4cc(-c5cnc(N)c(O[C@@H](C)c6c(Cl)ccc(F)c6Cl)c5)cn4)CC3)CC2)C(C)(C)C)cc1`?
A: DC50 [1]: 94 nM; Emax [2]: 95%

Q: For `CC(C)Nc1cc(C(=O)N[C@H]2CC[C@@H](C(=O)NCCCCCNC(=O)COc3cccc4c3C(=O)N(C3CCC(=O)NC3=O)C4=O)CC2)nc(-n2ccc3cc(C#N)cnc32)c1` (some centres undefined), which DC50 [3] is on record?
A: 190 nM

Q: With `CCCCN(Cc1ccc(C(=O)O)cc1)C(=O)Nc1ccc(OCCCCCCCn2cc(CNCc3ccc(-c4cccc5c4CN(C4CCC(=O)NC4=O)C5=O)cc3)nn2)cc1` (centres undefined) as the compound, how does the DC50 [4] read?
A: 1.9 nM

Q: Which pDC50 [5] does the source give for `CN[C@@H](C)C(=O)N[C@H](C(=O)N1CCC[C@H]1c1nc(C(=O)c2ccc(F)cc2)cs1)C1CCN(C(=O)c2cnc(N3CCN(CCOc4cc5ncnc(Nc6n[nH]c(C)c6C)c5cc4S(=O)(=O)C(C)(C)C)CC3)nc2)CC1` here?
A: 7.9

Q: For `O=C1CCC(N2C(=O)c3cccc(NCCCCCCCCCC(=O)Nc4ccc(N5Cc6ccc(O)cc6OC5=O)cc4)c3C2=O)C(=O)N1` (centres undefined), which Emax [6] is on record?
A: 64%

Q: With `CN[C@@H](C)C(=O)N[C@H](C(=O)N1C[C@@H](NC(=O)OCCOCCOCCOCCN2CCN(CCCC(=O)N3CCC[C@@H](n4nc(-c5ccc(Oc6ccccc6)cc5)c5c(N)ncnc54)C3)CC2)C[C@H]1C(=O)N[C@@H]1CCCc2ccccc21)C1CCCCC1` as the compound, how does the DC50 [7] read?
A: 200 nM

Q: For `O=C1CCC(N2C(=O)c3cccc(NCCOCCOCCOCCOCCOCCOCCOCCNCCNc4nonc4/C(=N/O)Nc4ccc(F)c(Br)c4)c3C2=O)C(=O)N1` (centres undefined), which Emax [8] is on record?
A: 93%

Q: Which Emax [6] does the source give for `O=C1CCC(N2C(=O)c3cccc(NCCCCC(=O)Nc4ccc(N5Cc6ccc(O)cc6OC5=O)cc4)c3C2=O)C(=O)N1` (centres undefined) here?
A: 21%

Q: What about the Ki [9] of the same compound?
A: 86 nM

Q: For `O=C1CCC(N2C(=O)c3cccc(NCCCC(=O)Nc4ccc(N5Cc6ccc(O)cc6OC5=O)cc4)c3C2=O)C(=O)N1` (centres undefined), which Ki [9] is on record?
A: 55 nM

Q: For `O=C1CCC(N2C(=O)c3ccc(NCCCCCCCCCCCNC(=O)c4cccc(SCc5cn(-c6cccc(C(=O)NO)c6)nn5)c4)cc3C2=O)C(=O)N1` (centres undefined), which DC50 [10] is on record?
A: 702 nM

Q: Which IC50 [11] does the source give for `C=C1CC[C@H]2[C@@H](/C=C(\C)C(=O)[C@@]3(O)C[C@H](C)[C@H](O)[C@@H]3[C@H]1OCc1cn(CCOCCOCCOCCNc3cccc4c3C(=O)N(C3CCC(=O)NC3=O)C4=O)nn1)C2(C)C` (some centres undefined) here?
A: 8340 nM

Q: Which degradation [12] does the source give for `COc1cc(C)c(Sc2cnc(NC(=O)c3ccc(N4CCN(CCCCCCNC(=O)COc5cccc6c5C(=O)N(C5CCC(=O)NC5=O)C6=O)CC4)cc3)s2)cc1C(=O)N1CCN(C(C)=O)CC1` (centres undefined) here?
A: > 90%

Q: And the IC50 [13]?
A: 17.6 nM

Q: What about the pDC50 [5] of the same compound?
A: 9.4

Q: With `O=C1CCC(N2C(=O)c3cccc(NCCCCCCC(=O)Nc4ccc(N5Cc6ccc(O)cc6OC5=O)cc4)c3C2=O)C(=O)N1` (centres undefined) as the compound, how does the Emax [6] read?
A: 55%

Q: For `Cc1ncsc1-c1ccc(CNC(=O)[C@@H]2C[C@@H](O)CN2C(=O)[C@@H](NC(=O)COCCOCCOCCOCCOc2cc3nccc(Nc4ccc5scnc5c4)c3cc2S(=O)(=O)C(C)(C)C)C(C)(C)C)cc1`, which Emax [14] is on record?
A: 95%

Q: Which Emax [6] does the source give for `O=C1CCC(N2C(=O)c3cccc(NCCCCCCCC(=O)Nc4ccc(N5Cc6ccc(O)cc6OC5=O)cc4)c3C2=O)C(=O)N1` (centres undefined) here?
A: 91%

Q: Which Emax [6] does the source give for `CN1C(=O)CCC(N2C(=O)c3cccc(NCCCCCCCC(=O)Nc4ccc(N5Cc6ccc(O)cc6OC5=O)cc4)c3C2=O)C1=O` (centres undefined) here?
A: 55%

Q: Which pDC50 [5] does the source give for `CN[C@H](C)C(=O)N[C@@H](C(=O)N1Cc2cc(OCCOCCOCCOCCOc3cc4nccc(Nc5ccc6scnc6c5)c4cc3S(=O)(=O)C(C)(C)C)ccc2C[C@H]1C(=O)N[C@H]1CCCc2ccccc21)C(C)(C)C` here?
A: 9.4

Q: With `CN1C[C@H](Nc2cnn(C)c(=O)c2Br)C[C@H](c2ccc(C(=O)N(C)CCCN(C)c3ccc(CCCOc4cccc5c4C(=O)N(C4CCC(=O)NC4=O)C5=O)cc3)cc2)C1` (some centres undefined) as the compound, how does the Emax [15] read?
A: 80%

Q: And the Emax [16]?
A: 80%

Q: Which DC50 [3] does the source give for `CC(C)Nc1cc(C(=O)N[C@H]2CC[C@@H](C(=O)NCCOCCNC(=O)COc3cccc4c3C(=O)N(C3CCC(=O)NC3=O)C4=O)CC2)nc(-n2ccc3cc(C#N)cnc32)c1` (some centres undefined) here?
A: 405 nM
